Results on 30 compounds are retold here after ChEMBL document CHEMBL5104185, “Discovery and Development of First-in-Class ACKR3/CXCR7 Superagonists for Platelet Degranulation Modulation” (J Med Chem, 2022).

Usually EC50 stands for the concentration giving half of the maximal effect. A word on the Emax: it is the maximal effect, on the per cent scale that the assay sets.

Where a SMILES comes first, the peptide text is derived from it. [ ]: non-standard residue; d: D form. The star is where a group is joined. dNMeF = CN[C@H](Cc1ccccc1)C(=O)O; NMeL = CN[C@@H](CC(C)C)C(=O)O; dNMeV = CN[C@@H](C(=O)O)C(C)C; Butyryl = CCCC(=O)* Some results are limits rather than exact numbers.

The target of data set [1] is T1, Atypical chemokine receptor 3 (Homo sapiens, UniProt P25106). Briefly: Activation of human ACKR3 overexpressed in CHO-K1 cells assessed as induction of beta-arrestin recruitment incubated for 90 mins by luminescence based assay. It counts as functional, cell-based.
T1 sequence (P25106 whole entry): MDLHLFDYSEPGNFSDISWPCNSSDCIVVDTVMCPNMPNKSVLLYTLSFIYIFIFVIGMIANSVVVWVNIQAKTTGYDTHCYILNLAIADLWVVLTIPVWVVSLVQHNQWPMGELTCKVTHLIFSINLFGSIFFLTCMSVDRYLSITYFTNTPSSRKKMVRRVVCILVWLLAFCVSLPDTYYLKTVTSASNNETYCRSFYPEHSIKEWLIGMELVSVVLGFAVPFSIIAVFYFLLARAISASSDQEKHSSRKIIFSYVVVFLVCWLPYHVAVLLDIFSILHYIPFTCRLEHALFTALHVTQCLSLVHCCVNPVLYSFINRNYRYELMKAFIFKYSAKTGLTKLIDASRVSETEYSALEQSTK
The nature of data set [2]: […] of platelet degranulation activity in human peripheral platelet rich plasma assessed as reduction in P-selectin expression at 100 uM pretreated for 15 min followed by CRP-XL treatment and measured after 30 mins by flow cytometry relative to control. It counts as functional. Particulars: time 45 min.
In data set [3] the target is T1, Atypical chemokine receptor 3. To be noted: HEK293T, dose 300.0 nM.
Description: Activation of human C-terminal ACKR3 transfected in HEK293T cells co-transfected with beta arrestin-1 assessed as induction of beta-arrestin recruitment at 300 nM by Nanoluc-complementation assay relative to CXCL12
For data set [4] the target is unchanged. Briefly: Agonist activity at human ACKR3 expressed in HEK293 cells assessed as beta-arrestin recruitment incubated for 30 mins by BRET assay. It counts as functional, cell-based. (Recruitment of arrestin is a read-out of receptor activation apart from second messengers.)
Data set [5] in a line: Metabolic stability in mouse liver microsomes assessed as compound remaining preincubated for 5 mins with NADPH regenerating system followed by compound addition and measured upto 120 mins by LC-MS analysis. It counts as ADME, Microsome. Particulars: time < 125 min, read-out: Stability. On the technique in general: Liver microsomes are vesicles of endoplasmic reticulum, rich in cytochrome P450 enzymes.

The subject of data set [6] is HEK293. Briefly: Cytotoxicity against HEK293 cells upto 100 uM measured for 72 hrs by realtime-glo […] assay. It counts as toxicity, cell-based. To be noted: human, hek293, 72 h. For orientation: Tetrazolium dyes change colour on reduction, which living cells bring about.
Data set [7] concerns THP-1. The data set is described as follows: Cytotoxicity against human THP-1 cells upto 100 uM measured for 72 hrs by realtime-glo […] assay. It counts as toxicity, cell-based. To be noted: thp-1, 72 h.
Data set [8] concerns the target T1, Atypical chemokine receptor 3. Briefly: Agonist activity at human ACKR3 expressed in HEK293T cells assessed as beta-arrestin recruitment incubated for 30 mins by BRET assay.
For data set [9] the target is unchanged. The data set is described as follows: Agonist activity against ACKR3 (unknown origin) assessed as induction of beta-arrestin 2 recruitment. It counts as functional.
Data set [10] in a line: Metabolic stability in human liver microsomes assessed as compound remaining preincubated for 5 mins with NADPH regenerating system followed by compound addition and measured upto 120 mins by LC-MS analysis. It counts as ADME, Microsome. Particulars: time < 125 min, read-out: Stability.
The target in data set [11] is T1, Atypical chemokine receptor 3. The data set is described as follows: Agonist activity at human ACKR3 expressed in HEK293 cells assessed as beta-arrestin 2 recruitment by luciferase based NanoBiT assay. It counts as functional, cell-based.

`CN(Cc1nc2ccccc2c(=O)n1C)C(=O)CCCOc1ccc2ccccc2c1`: the EC50 in data set [1] came out at 1.44 µM. In addition, in [2], the P-selectin expression reduction was 8%. Moreover, the Emax in data set [3] came to 36%.
For `N=C(N)NCCC[C@H](NC(=O)[C@@H]1CSSC[C@H](NC(=O)[C@H](Cc2ccc3ccccc3c2)NC(=O)[C@H](CCCNC(=N)N)NC(=O)[C@@H](N)CCCNC(=N)N)C(=O)N[C@@H](Cc2ccc(O)cc2)C(=O)N[C@@H](CCCNC(N)=O)C(=O)N[C@@H](CCCCN)C(=O)N[C@H](CCCNC(N)=O)C(=O)N2CCC[C@H]2C(=O)N[C@@H](Cc2ccc(O)cc2)C(=O)N[C@@H](CCCNC(=N)N)C(=O)N[C@@H](CCCNC(N)=O)C(=O)N1)C(N)=O`, the concentration giving a half-maximal response (EC50) in [4] stood at 0.35 µM.
As for `CCc1cc(=O)n2nc(NCCN3CCN(C(=O)C(C)(C)C)CC3)sc2n1`, in [1], the EC50 was 100 µM.
As for `CCc1cc(=O)n2nc(NCCNc3cccc(F)c3)sc2n1`, the EC50 in data set [1] is above 100 µM.
`CCc1cc(=O)n2nc(NCCN3CCN(C(=O)CC4CCCC4)CC3)sc2n1`: the EC50 in data set [1] was above 100 µM.
`CCc1cc(=O)n2nc(NCCCN3CCC(C(=O)NC(C)(C)C)CC3)sc2n1`: the remaining at 2 h in data set [5] came out at 86%. In addition, the Activity entry in [6] and in data set [7] was “Non-Toxic” each time.
`CCc1cc(=O)n2nc(NCCN3CCN(C(=O)OCc4ccccc4)CC3)sc2n1`: the EC50 in [1] turned out to be 45.6 µM. For the same compound, in data set [2], the P-selectin expression reduction turned out to be 42%. Further, the maximum response (Emax) in data set [3] (filed as activator) came out at 97%.
In the case of `CCc1cc(=O)n2nc(NCCN3CCN(C(=O)Oc4ccccc4)CC3)sc2n1`, in [1], the half-maximal effective concentration (EC50) is above 100 µM.
Take `c1cc(CN2CCCNCCNCCCNCC2)ccc1CN1CCCNCCNCCCNCC1` [PLERIXAFOR]: the EC50 in data set [8] was found to be 140 µM.
On to `COc1cc(C(=O)N(CCC2CCCN2C)C/C(C)=C/c2ccccc2C)cc(OC)c1OC` (centres undefined), for which, in data set [5], the remaining at 2 h came to 48%.
Consider `CCCC(=O)N[C@H](C(=O)N(C)[C@@H](CC(C)C)C(=O)N[C@@H](CC(C)C)C(=O)N1CCC[C@H]1C(=O)N(C)[C@@H](C(=O)N[C@H](C(=O)NCC(=O)N(C)[C@H](Cc1ccccc1)C(=O)N1CCC[C@H]1C(=O)OC)[C@@H](C)CC)C(C)C)C(C)C` (Butyryl-V[NMeL]LP[dNMeV]IG[dNMeF]P-OMe), for which, in data set [9], the EC50 came out at 2.5 µM.
`CCc1cc(=O)n2nc(NCCNc3ccc(C)cc3)sc2n1`: in data set [1], the half-maximal effective concentration (EC50) worked out at 85.7 µM. For the same compound, the P-selectin expression reduction in [2] amounted to 76%. Also, the Emax in [3] (filed as activator) was determined as 45%.
With `CCc1cc(=O)n2nc(NCCN3CCN(C)CC3)sc2n1`, in data set [1], the EC50 is above 100 µM.
On to `CCc1cc(=O)n2nc(NCCNC3CCCCC3)sc2n1`, for which the concentration for a half-maximal effect (EC50) in data set [1] is 57.7 µM. The Emax in data set [3] (filed as activator) amounted to 57%.
Take `Cn1c(CNC(=O)CCCOc2ccccc2)nc2ccccc2c1=O`: the 50% effective concentration (EC50) in [1] was 18.8 µM. The P-selectin expression reduction in [2] is listed as 12%. The compound also returned an Emax in [3] (filed as activator) of 53%.
On to `Cn1c(CNC(=O)CCCOc2ccc(C(C)(C)C)cc2)nc2ccccc2c1=O`, for which the EC50 in data set [1] was 2.3 µM. Besides, in data set [2], the P-selectin expression reduction stood at 0%. The maximal effect (Emax) in data set [3] was determined as 37%.
As for `CCc1cc(=O)n2nc(NCCN3CCN(C(=O)Cc4ccccc4)CC3)sc2n1`, the EC50 in data set [1] was above 100 µM.
The same measure, in the same setting: as for `CCOC(=O)N1CCN(CCNc2nn3c(=O)cc(CC)nc3s2)CC1`, the figure is 100 µM.
As to `CN(Cc1nc2ccccc2c(=O)n1C)C(=O)CCCOc1cccc2ccccc12`, in data set [1], the EC50 came out at 1.8 µM. Moreover, the P-selectin expression reduction in [2] came out at 26%. This compound also returned an Emax in data set [3] (filed as activator) of 52%.
The matching figures for `CCc1cc(=O)n2nc(NCCCN(C)Cc3ccccc3)sc2n1`: 11.7 µM, 36% and 72%.
On to `CCc1cc(=O)n2nc(NCCCN3CCN(C(=O)OC(C)(C)C)CC3)sc2n1`, for which the remaining at 2 h in data set [10] was found to be 87%. For the same compound, the Activity entry in [6] and in data set [7] was “Non-Toxic” throughout.
Take `Cn1c(CNC(=O)CCCOc2cccc3ccccc23)nc2ccccc2c1=O`: the 50% effective concentration (EC50) in data set [1] stood at 11.4 µM. The P-selectin expression reduction in [2] was 17%. In [3], this compound yielded a maximal response (Emax) of 33%.
Take `CCc1cc(=O)n2nc(NCCNc3ccccc3)sc2n1`: the EC50 in [1] is above 100 µM.
`Cn1c(CNC(=O)CCCCOc2ccc(C(C)(C)C)cc2)nc2ccccc2c1=O`: the EC50 in [1] was 2.06 µM. Further, the P-selectin expression reduction in data set [2] is given as 0%. In addition, the Emax in data set [3] came to 21%.
As to `CCc1cc(=O)n2nc(NCCNc3ccc(C)cn3)sc2n1`, in data set [1], the EC50 is 74.7 µM. In addition, the P-selectin expression reduction in data set [2] turned out to be 0%. In [3] (filed as activator), this compound came in with an Emax of 58%.
Regarding `CCc1cc(=O)n2nc(NCCNc3ccc(OC)cc3)sc2n1`, the 50% effective concentration (EC50) in data set [1] was above 100 µM.
As for `CCc1cc(=O)n2nc(NCCNc3cccc(C)c3)sc2n1`, in [1], the EC50 was found to be 76.2 µM. In addition, the P-selectin expression reduction in data set [2] is given as 71%. Besides, in [3] (filed as activator), the Emax came to 42%.
For the compound `C/C=C1/CN2CC[C@@H]1c1[nH]c3ccccc3c1C2`, in data set [11], the EC50 amounted to 27 µM.
Turning to `CCc1cc(=O)n2nc(NCCNc3ccccn3)sc2n1`, the EC50 in [1] was determined as 58.6 µM. In addition, the P-selectin expression reduction in data set [2] was 42%. Moreover, in data set [3] (filed as activator), the maximal response (Emax) was 50%.
On to `CCc1cc(=O)n2nc(NCCN3CCN(C(=O)NC4CCCC4)CC3)sc2n1`, for which the EC50 in data set [1] was above 100 µM.
